In US10167262B2, “Herbicidal substituted 3-arylpyrazoles” (FMC CORPORATION, priority 2014, dated 2019):
Read-outs that look alike come from different tables or passages of the source.

Tests used:
Format in all cases: in vivo
[1] = system: barnyardgrass (Echinochloa crus-galli); test: Test A pre-/postemergence greenhouse herbicide test, visual injury rating 0-100; conditions: for pest or weed control at 500 g/ha: 500 g ai/ha
Procedure, shortened: (§1)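 Each species was treated both before emergence, via soil spray onto a loam–sand blend, and after emergence at the one- to two-leaf stage. Plants stayed in the greenhouse around 10 days before visual injury assessment.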

corn (Zea mays) = test: as above; conditions: for plant injury at 500 g/ha: 500 g ai/ha
Procedure, shortened: as §1

[2] = system: giant foxtail (Setaria faberii); test: as above; conditions: for pest or weed control at 500 g/ha: 500 g ai/ha
Procedure, shortened: as §1

[3] = system: large (Lg) crabgrass (Digitaria sanguinalis); test: as above; conditions: for pest or weed control at 500 g/ha: 500 g ai/ha
Procedure, shortened: as §1

[4] = system: morningglory (Ipomoea spp.); test: as above; conditions: for pest or weed control at 500 g/ha: 500 g ai/ha
Procedure, shortened: as §1

[5] = system: pigweed (Amaranthus retroflexus); test: as above; conditions: for pest or weed control at 500 g/ha: 500 g ai/ha
Procedure, shortened: as §1

[6] = system: velvetleaf (Abutilon theophrasti); test: as above; conditions: Abutilon theophrasti, 240 h, read-out: Plant response rating (0 to 100 scale), Velvetleaf; for pest or weed control at 500 g/ha: 500 g ai/ha
Procedure, shortened: as §1

[7] = system: wheat (Triticum aestivum); test: as above; conditions: for plant injury at 500 g/ha: 500 g ai/ha
Procedure, shortened: as §1

[8] = system: blackgrass (Alopecurus myosuroides); test: Test C pre-/postemergence greenhouse test, plant response rating 0-100; conditions: Alopecurus myosuroides; for pest or weed control at 62 g/ha: 62 g ai/ha; for pest or weed control at 125 g/ha: 125 g ai/ha; for pest or weed control at 250 g/ha: 250 g ai/ha; for pest or weed control at 500 g/ha: 500 g ai/ha
Text: (§2) Seeds of plant species selected from blackgrass (Alopecurus myosuroides), Italian ryegrass (Lolium multiflorum), winter wheat (Triticum aestivum), galium (catchweed bedstraw, Galium aparine), corn (Zea mays), large (Lg) crabgrass (Digitaria sanguinalis), giant foxtail (Setaria faberii), johnsongrass (Sorghum halepense), lambsquarters (Chenopodium album), morningglory (Ipomoea coccinea), yellow nutsedge (Cyperus esculentus), pigweed (Amaranthus retroflexus), ragweed (common ragweed, Ambrosia elatior), soybean (Glycine max), barnyardgrass (Echinochloa crus-galli), oilseed rape (Brassica napus), waterhemp (common waterhemp, Amaranthus rudis), and velvetleaf (Abutilon theophrasti) were planted into a blend of loam soil and sand and treated preemergence with test chemicals formulated in a non-phytotoxic solvent mixture which included a surfactant.
(§3) At the same time, plants selected from these crop and weed species and also winter barley (Hordeum vulgare), bermudagrass (Cynodon dactylon), downy bromegrass (Bromus tectorum), canarygrass (Phalaris minor), cocklebur (common cocklebur, Xanthium strumarium), woolly cupgrass (Eriochloa villosa), deadnettle (henbit deadnettle, Lamium amplexicaule), green foxtail (Setaria viridis), goosegrass (Eleusine indica), surinam grass (Brachiaria decumbens), windgrass (Apera spica-venti), chickweed (common chickweed, Stellaria media), kochia (Kochia scoparia), and wild oat (Avena fatua), were planted in pots containing Redi-Earth® planting medium (Scotts Company, 14111 Scottslawn Road, Marysville, Ohio 43041) comprising spaghnum peat moss, vermiculite, wetting agent and starter nutrients and treated with postemergence applications of test chemicals formulated in the same manner. Plants ranged in height from 2 to 18 cm (1- to 4-leaf stage) for postemergence treatments. Treated plants and controls were maintained in a greenhouse for 13 to 15 days, after which time all species were compared to controls and visually evaluated. Plant response ratings, summarized in Table C, are based on a scale of 0 to 100 where 0 is no effect and 100 is complete control. A dash (-) response means no test result.

[9] = system: large (Lg) crabgrass (Digitaria sanguinalis); test: as above; conditions: Digitaria sanguinalis; for pest or weed control at 62 g/ha: 62 g ai/ha; for pest or weed control at 125 g/ha: 125 g ai/ha; for pest or weed control at 250 g/ha: 250 g ai/ha; for pest or weed control at 500 g/ha: 500 g ai/ha
Text: as §2, §3

[10] = system: morningglory (Ipomoea coccinea); test: as above; conditions: Ipomoea; for pest or weed control at 62 g/ha: 62 g ai/ha; for pest or weed control at 125 g/ha: 125 g ai/ha; for pest or weed control at 250 g/ha: 250 g ai/ha; for pest or weed control at 500 g/ha: 500 g ai/ha
Text: as §2, §3

[11] = system: ragweed (common ragweed, Ambrosia elatior); test: as above; conditions: Ambrosia artemisiifolia; for pest or weed control at 62 g/ha: 62 g ai/ha; for pest or weed control at 125 g/ha: 125 g ai/ha; for pest or weed control at 250 g/ha: 250 g ai/ha
Text: as §2, §3

[12] = system: velvetleaf (Abutilon theophrasti); test: as above; conditions: Abutilon theophrasti; for pest or weed control at 62 g/ha: 62 g ai/ha; for pest or weed control at 125 g/ha: 125 g ai/ha; for pest or weed control at 250 g/ha: 250 g ai/ha; for pest or weed control at 500 g/ha: 500 g ai/ha
Text: as §2, §3

[13] = post-emergence, Postemergence, scale 0 to 100
[14] = pre-emergence, Preemergence, read-out: Plant response rating, Blackgrass
[15] = post-emergence, Postemergence, read-out: Plant response rating (0 to 100), Crabgrass, Large
[16] = pre-emergence, Preemergence, read-out: Plant response rating, Crabgrass, Large
[17] = post-emergence, Postemergence, read-out: Plant response rating (0 to 100), Morningglory
[18] = pre-emergence, Preemergence, read-out: Plant response rating, Morningglory
[19] = post-emergence, Postemergence, read-out: Plant response rating (0 to 100), Ragweed
[20] = pre-emergence, Preemergence, read-out: Plant response rating, Ragweed
[21] = post-emergence, Postemergence, read-out: Plant response rating (0 to 100), Velvetleaf
[22] = pre-emergence, Preemergence, read-out: Plant response rating, Velvetleaf

COC(OC)(c1ccccc1)c1c[nH]nc1-c1cc(Cl)cc(Cl)c1 [Compound 13, 3-(3,5-dichlorophenyl)-4-(dimethoxyphenylmethyl)-1H-pyrazole]
pest or weed control at 125 g/ha ([1]; Echinochloa crus-galli, post-emergence, 240 h, Postemergence, 125 g ai/ha, read-out: Plant response rating (0 to 100 scale), Barnyardgrass): 0% | pest or weed control at 500 g/ha ([1]; Echinochloa crus-galli, post-emergence, 240 h, Postemergence, read-out: Plant response rating (0 to 100 scale), Barnyardgrass): 0% | pest or weed control at 500 g/ha ([1]; Echinochloa crus-galli, pre-emergence, 240 h, Preemergence, read-out: Plant response rating (0 to 100 scale), Barnyardgrass): 0% | Barnyardgrass plant response rating (0 = no effect, 100 = complete control) ([1]; Preemergence, 125 g ai/ha): 0 | Corn plant response rating (0 = no effect, 100 = complete control) (corn (Zea mays); Preemergence, 125 g ai/ha): 0 | plant injury at 125 g/ha (corn (Zea mays); Zea mays, post-emergence, 240 h, Postemergence, 125 g ai/ha, read-out: Plant response rating (0 to 100 scale), Corn): 0% | plant injury at 500 g/ha (corn (Zea mays); Zea mays, post-emergence, 240 h, Postemergence, read-out: Plant response rating (0 to 100 scale), Corn): 0% | plant injury at 500 g/ha (corn (Zea mays); Zea mays, pre-emergence, 240 h, Preemergence, read-out: Plant response rating (0 to 100 scale), Corn): 0% | Foxtail, Giant plant response rating (0 = no effect, 100 = complete control) ([2]; Preemergence, 125 g ai/ha): 0 | pest or weed control at 125 g/ha ([2]; Setaria faberi, post-emergence, 240 h, Postemergence, 125 g ai/ha, read-out: Plant response rating (0 to 100 scale), Foxtail, Giant): 0% | pest or weed control at 500 g/ha ([2]; Setaria faberi, post-emergence, 240 h, Postemergence, read-out: Plant response rating (0 to 100 scale), Foxtail, Giant): 0% | pest or weed control at 500 g/ha ([2]; Setaria faberi, pre-emergence, 240 h, Preemergence, read-out: Plant response rating (0 to 100 scale), Foxtail, Giant): 0% | pest or weed control at 125 g/ha ([3]; Digitaria sanguinalis, post-emergence, 240 h, Postemergence, 125 g ai/ha, read-out: Plant response rating (0 to 100 scale), Crabgrass, Large): 0% | pest or weed control at 500 g/ha ([3]; Digitaria sanguinalis, post-emergence, 240 h, Postemergence, read-out: Plant response rating (0 to 100 scale), Crabgrass, Large): 0% | pest or weed control at 500 g/ha ([3]; Digitaria sanguinalis, pre-emergence, 240 h, Preemergence, read-out: Plant response rating (0 to 100 scale), Crabgrass, Large): 0% | Crabgrass, Large plant response rating (0 = no effect, 100 = complete control) ([3]; Preemergence, 125 g ai/ha): 0 | pest or weed control at 125 g/ha ([4]; Ipomoea, post-emergence, 240 h, Postemergence, 125 g ai/ha, read-out: Plant response rating (0 to 100 scale), Morningglory): 0% | pest or weed control at 500 g/ha ([4]; Ipomoea, post-emergence, 240 h, Postemergence, read-out: Plant response rating (0 to 100 scale), Morningglory): 0% | pest or weed control at 500 g/ha ([4]; Ipomoea, pre-emergence, 240 h, Preemergence, read-out: Plant response rating (0 to 100 scale), Morningglory): 0% | Morningglory plant response rating (0 = no effect, 100 = complete control) ([4]; Preemergence, 125 g ai/ha): 0 | pest or weed control at 125 g/ha ([5]; Amaranthus retroflexus, post-emergence, 240 h, Postemergence, 125 g ai/ha, read-out: Plant response rating (0 to 100 scale), Pigweed): 90% | pest or weed control at 500 g/ha ([5]; Amaranthus retroflexus, post-emergence, 240 h, Postemergence, read-out: Plant response rating (0 to 100 scale), Pigweed): 100% | pest or weed control at 500 g/ha ([5]; Amaranthus retroflexus, pre-emergence, 240 h, Preemergence, read-out: Plant response rating (0 to 100 scale), Pigweed): 100% | Pigweed plant response rating (0 = no effect, 100 = complete control) ([5]; Preemergence, 125 g ai/ha): 70 | pest or weed control at 125 g/ha ([6]; post-emergence, Postemergence, 125 g ai/ha): 80% | pest or weed control at 500 g/ha ([6]; post-emergence, Postemergence): 90% | pest or weed control at 500 g/ha ([6]; pre-emergence, Preemergence): 70% | Wheat plant response rating (0 = no effect, 100 = complete control) ([7]; Preemergence, 125 g ai/ha): 0 | plant injury at 125 g/ha ([7]; Triticum aestivum, post-emergence, 240 h, Postemergence, 125 g ai/ha, read-out: Plant response rating (0 to 100 scale), Wheat): 0% | plant injury at 500 g/ha ([7]; Triticum aestivum, post-emergence, 240 h, Postemergence, read-out: Plant response rating (0 to 100 scale), Wheat): 0% | plant injury at 500 g/ha ([7]; Triticum aestivum, pre-emergence, 240 h, Preemergence, read-out: Plant response rating (0 to 100 scale), Wheat): 0% | pest or weed control at 62 g/ha ([8]; post-emergence, Postemergence, read-out: Plant response rating (0 to 100), Blackgrass): 5% | pest or weed control at 125 g/ha ([8]; post-emergence, Postemergence, scale 0 to 100, read-out: Plant response rating, Blackgrass): 0% | pest or weed control at 250 g/ha [8, 13]: 0% | pest or weed control at 500 g/ha [8, 13]: 0% | pest or weed control at 62 g/ha [8, 14]: 10% | pest or weed control at 125 g/ha [8, 14]: 10% | pest or weed control at 250 g/ha ([8]; pre-emergence, Preemergence): 50% | pest or weed control at 500 g/ha ([8]; pre-emergence, Preemergence): 40% | pest or weed control at 62 g/ha [9, 15]: 0% | pest or weed control at 125 g/ha [9, 15]: 10% | pest or weed control at 250 g/ha [9, 13]: 10% | pest or weed control at 500 g/ha [9, 13]: 0% | pest or weed control at 62 g/ha [9, 16]: 0% | pest or weed control at 125 g/ha [9, 16]: 0% | pest or weed control at 250 g/ha ([9]; pre-emergence, Preemergence): 0% | pest or weed control at 500 g/ha ([9]; pre-emergence, Preemergence): 0% | pest or weed control at 62 g/ha [10, 17]: 0% | pest or weed control at 125 g/ha [10, 17]: 0% | pest or weed control at 250 g/ha [10, 13]: 10% | pest or weed control at 500 g/ha [10, 13]: 10% | pest or weed control at 62 g/ha [10, 18]: 0% | pest or weed control at 125 g/ha [10, 18]: 0% | pest or weed control at 250 g/ha ([10]; pre-emergence, Preemergence): 0% | pest or weed control at 500 g/ha ([10]; pre-emergence, Preemergence): 0% | pest or weed control at 62 g/ha [11, 19]: 50% | pest or weed control at 125 g/ha [11, 19]: 50% | pest or weed control at 250 g/ha [11, 13]: 75% | pest or weed control at 500 g/ha ([11]; post-emergence, Postemergence, 500 g ai/ha, scale 0 to 100): 80% | pest or weed control at 62 g/ha [11, 20]: 85% | pest or weed control at 125 g/ha [11, 20]: 100% | pest or weed control at 250 g/ha ([11]; pre-emergence, Preemergence): 100% | pest or weed control at 62 g/ha [12, 21]: 70% | pest or weed control at 125 g/ha [12, 21]: 75% | pest or weed control at 250 g/ha [12, 13]: 85% | pest or weed control at 500 g/ha [12, 13]: 80% | pest or weed control at 62 g/ha [12, 22]: 60% | pest or weed control at 125 g/ha [12, 22]: 85% | pest or weed control at 250 g/ha ([12]; pre-emergence, Preemergence): 75% | pest or weed control at 500 g/ha ([12]; pre-emergence, Preemergence): 100%
